Experiments:
A549 = test: Antiproliferative activity against human A549 cells assessed as inhibition of cell proliferation by MTT assay; format: functional, cell-based
PC-3 = test: Antiproliferative activity against human PC-3 cells assessed as inhibition of cell proliferation by MTT assay; format: functional, cell-based
HepG2 = test: Antiproliferative activity against human HepG2 cells assessed as inhibition of cell proliferation by MTT assay; format: functional, cell-based
[1] = Cytotoxicity against mouse L929 cells assessed as inhibition of cell proliferation by MTT assay; format: toxicity, cell-based

Row | IC50 (A549) | IC50 (PC-3) | IC50 (HepG2) | SMILES | IC50 [1]
1 | 7.51 µM | 9.72 µM | 5.91 µM | CC1(C)CCC[C@](C)([C@@H]2CC[C@]3(C)[C@@H]2[C@H](O)CC2[C@@]4(C)CC[C@H](OC(=O)CSc5nc(-c6ccc(Br)cc6)c(C#N)c(=O)[nH]5)C(C)(C)[C@@H]4CC[C@]23C)O1 (stereo partly drawn) | 77 µM
2 | 8.9 µM | 9.82 µM | 7.6 µM | CC1(C)CCC[C@](C)([C@@H]2CC[C@]3(C)[C@@H]2[C@H](O)C[C@@H]2[C@@]4(C)CC[C@H](OC(=O)CSc5nc(-c6ccccc6)c(C#N)c(=O)[nH]5)C(C)(C)[C@@H]4CC[C@]23C)O1 | 74.7 µM
3 | 83 µM | > 100 µM | 67.8 µM | CC1(C)CCC[C@](C)([C@@H]2CC[C@]3(C)[C@@H]2[C@H](O)C[C@H]2[C@@]4(C)CC[C@H](OC(=O)CSc5nc6cccc(Cl)c6c(=O)[nH]5)C(C)(C)[C@@H]4CC[C@]23C)O1 | > 100 µM
4 | 7.14 µM | 8.44 µM | 7.09 µM | CC1(C)CCC[C@](C)([C@@H]2CC[C@]3(C)[C@@H]2[C@H](O)CC2[C@@]4(C)CC[C@H](OC(=O)CSc5nc(-c6cccc(Cl)c6)c(C#N)c(=O)[nH]5)C(C)(C)[C@@H]4CC[C@]23C)O1 (stereo partly drawn) | 74.9 µM
5 | 6.88 µM | 9.45 µM | 5.09 µM | COc1ccc(-c2nc(SCC(=O)O[C@H]3CC[C@@]4(C)[C@@H](CC[C@]5(C)[C@H]4C[C@@H](O)[C@@H]4C([C@@]6(C)CCCC(C)(C)O6)CC[C@]45C)C3(C)C)[nH]c(=O)c2C#N)cc1 (stereo partly drawn) | 76.3 µM
6 | > 100 µM | > 100 µM | 80.5 µM | CC1(C)CCC[C@](C)([C@@H]2CC[C@]3(C)[C@@H]2[C@H](O)C[C@H]2[C@@]4(C)CC[C@H](OC(=O)CSc5nc6ccc(Cl)cc6c(=O)[nH]5)C(C)(C)[C@@H]4CC[C@]23C)O1 | > 100 µM
7 | 6.84 µM | 8.98 µM | 6.85 µM | COc1cccc(-c2nc(SCC(=O)O[C@H]3CC[C@]4(C)[C@H]5C[C@@H](O)[C@@H]6[C@H]([C@@]7(C)CCCC(C)(C)O7)CC[C@@]6(C)[C@]5(C)CC[C@H]4C3(C)C)[nH]c(=O)c2C#N)c1 | 64.5 µM

Continued, molecule first:

Row | SMILES | IC50 (A549) | IC50 (PC-3) | IC50 (HepG2) | IC50 [1]
8 | CC1(C)CCC[C@](C)(C2CC[C@]3(C)[C@@H]2[C@H](O)C[C@H]2[C@@]4(C)CC[C@H](OC(=O)CSc5nc(-c6c[nH]c7ccccc67)c(C#N)c(=O)[nH]5)C(C)(C)[C@@H]4CC[C@]23C)O1 (stereo partly drawn) | 7.17 µM | 10.8 µM | 5.21 µM | 76.1 µM
9 | CC1(C)CCC[C@](C)([C@@H]2CC[C@]3(C)[C@@H]2[C@H](O)CC2[C@@]4(C)CC[C@H](OC(=O)CSc5nc(-c6ccc(Cl)cc6)c(C#N)c(=O)[nH]5)C(C)(C)[C@@H]4CC[C@]23C)O1 (stereo partly drawn) | 6.79 µM | 7.42 µM | 6.39 µM | 76.8 µM
10 | CC1(C)CCC[C@](C)([C@@H]2CC[C@]3(C)[C@@H]2[C@H](O)CC2[C@@]4(C)CC[C@H](OC(=O)CSc5nc(-c6cccc(F)c6)c(C#N)c(=O)[nH]5)C(C)(C)[C@@H]4CC[C@]23C)O1 (stereo partly drawn) | 6.98 µM | 8.19 µM | 7.56 µM | 76 µM
11 | CC1(C)CCC[C@](C)([C@@H]2CC[C@]3(C)[C@@H]2[C@H](O)C[C@H]2[C@@]4(C)CC[C@H](OC(=O)CSc5nc6ccc([N+](=O)[O-])cc6c(=O)[nH]5)C(C)(C)[C@@H]4CC[C@]23C)O1 | > 100 µM | > 100 µM | 59.8 µM | > 100 µM
12 | CC1(C)CCC[C@](C)([C@@H]2CC[C@]3(C)[C@@H]2[C@H](O)C[C@H]2[C@@]4(C)CC[C@H](OC(=O)CSc5nc6ccc(Br)cc6c(=O)[nH]5)C(C)(C)[C@@H]4CC[C@]23C)O1 | > 100 µM | > 100 µM | > 100 µM | > 100 µM
13 | CC1(C)CCC[C@](C)([C@@H]2CC[C@]3(C)[C@@H]2[C@H](O)C[C@H]2[C@@]4(C)CC[C@H](OC(=O)CSc5nc6c(Cl)cccc6c(=O)[nH]5)C(C)(C)[C@@H]4CC[C@]23C)O1 | > 100 µM | 62.3 µM | > 100 µM | > 100 µM
14 | CC1(C)CCC[C@](C)([C@@H]2CC[C@]3(C)[C@@H]2[C@H](O)CC2[C@@]4(C)CC[C@H](OC(=O)CSc5nc(-c6cccc(Br)c6)c(C#N)c(=O)[nH]5)C(C)(C)[C@@H]4CC[C@]23C)O1 (stereo partly drawn) | 6.69 µM | 6.53 µM | 5.95 µM | 70.3 µM
15 | Cc1ccc2nc(SCC(=O)O[C@H]3CC[C@@]4(C)[C@@H](CC[C@]5(C)[C@H]4C[C@@H](O)[C@@H]4[C@H]([C@@]6(C)CCCC(C)(C)O6)CC[C@]45C)C3(C)C)[nH]c(=O)c2c1 | > 100 µM | > 100 µM | > 100 µM | > 100 µM
16 | CC1(C)CCC[C@](C)([C@@H]2CC[C@]3(C)[C@@H]2[C@H](O)CC2[C@@]4(C)CC[C@H](OC(=O)CSc5nc(-c6ccc(F)cc6)c(C#N)c(=O)[nH]5)C(C)(C)[C@@H]4CC[C@]23C)O1 (stereo partly drawn) | 9.09 µM | 7.82 µM | 7.75 µM | 76 µM
17 | CC1(C)CCC[C@](C)([C@@H]2CC[C@]3(C)[C@@H]2[C@H](O)C[C@H]2[C@@]4(C)CC[C@H](OC(=O)CSc5nc6cc(Cl)ccc6c(=O)[nH]5)C(C)(C)[C@@H]4CC[C@]23C)O1 | > 100 µM | > 100 µM | > 100 µM | > 100 µM
18 | CC1(C)CCC[C@](C)([C@@H]2CC[C@]3(C)[C@@H]2[C@H](O)C[C@H]2[C@@]4(C)CC[C@H](OC(=O)CSc5nc(-c6cccc(O)c6)c(C#N)c(=O)[nH]5)C(C)(C)[C@@H]4CC[C@]23C)O1 | 14.3 µM | 20.8 µM | 9.35 µM | 78.5 µM
19 | CC1(C)CCC[C@](C)([C@@H]2CC[C@]3(C)[C@@H]2[C@H](O)C[C@H]2[C@@]4(C)CC[C@H](OC(=O)CSc5nc6ccc(F)cc6c(=O)[nH]5)C(C)(C)[C@@H]4CC[C@]23C)O1 | 56.6 µM | > 100 µM | 70.5 µM | > 100 µM
20 | COc1cc(-c2nc(SCC(=O)O[C@H]3CC[C@@]4(C)[C@@H](CC[C@]5(C)[C@H]4C[C@@H](O)[C@@H]4C([C@@]6(C)CCCC(C)(C)O6)CC[C@]45C)C3(C)C)[nH]c(=O)c2C#N)cc(OC)c1OC (stereo partly drawn) | 7.6 µM | 13.3 µM | 7.71 µM | 77.7 µM
21 | Cc1cccc(-c2nc(SCC(=O)O[C@H]3CC[C@@]4(C)[C@@H](CC[C@]5(C)[C@H]4C[C@@H](O)[C@@H]4[C@H]([C@@]6(C)CCCC(C)(C)O6)CC[C@]45C)C3(C)C)[nH]c(=O)c2C#N)c1 | 13.6 µM | 17 µM | 14.1 µM | 77.1 µM
22 | CC1(C)CCC[C@](C)([C@@H]2CC[C@]3(C)[C@@H]2[C@H](O)C[C@H]2[C@@]4(C)CC[C@H](OC(=O)CSc5nc(-c6ccncc6)c(C#N)c(=O)[nH]5)C(C)(C)[C@@H]4CC[C@]23C)O1 | 17.3 µM | 15.8 µM | 12.8 µM | 77.1 µM
